Test results taken from US20260274856A1, “COVALENT CEREBLON LIGANDS” (C4 THERAPEUTICS, INC., priority 2023, published 2026).
Where two headings read alike, the source gives them in different places.

Target: cellular cereblon (CRBN) (Homo sapiens, UniProt Q96SW2)
Test: NanoBRET Target Engagement Assay, competition with pomalidomide tracer in 293T.116 cells
Settings: for NanoBRET TE 293T.116 CRBN 2 hours IP nM / NanoBRET TE 293T.116 CRBN 6 hours IP nM / NanoBRET TE 293T.116 CRBN 24 hours IP nM / IC50: 293T.116 cells
[1] = NanoBRET TE 293T.116 CRBN 2 hours IC50 nM, 2 hours incubation
[2] = NanoBRET TE 293T.116 CRBN 6 hours IC50 nM, 6 hours incubation
[3] = NanoBRET TE 293T.116 CRBN 24 hours IC50 nM, 24 hours incubation
[4] = read-out: NanoBRET TE 293T.116 CRBN 2 hours Emax
[5] = read-out: NanoBRET TE 293T.116 CRBN 6 hours Emax
[6] = read-out: NanoBRET TE 293T.116 CRBN 24 hours Emax

SMILES	NanoBRET TE 293T.116 CRBN 2 hours IP nM (2 hours incubation)	NanoBRET TE 293T.116 CRBN 6 hours IP nM (6 hours incubation)	NanoBRET TE 293T.116 CRBN 24 hours IP nM (24 hours incubation)	IC50 [1]	IC50 [2]	IC50 [3]	Emax [4]	Emax [5]	Emax [6]
CN(c1cccc(S(=O)(=O)F)c1)C1CCC(=O)NC1=O (stereo not drawn) [Compound A-11, 3-((2,6-dioxopiperidin-3-yl)(methyl)amino)benzenesulfonyl fluoride]	*** (<= 1 μM is ***)	*** (<= 1 μM is ***)	*** (<= 1 μM is ***)	< 1000 nM	< 1000 nM	< 1000 nM	< 50%	< 50%	< 50%
O=C1CCC(c2ccc(N3CCNCC3)c(OS(=O)(=O)F)c2)C(=O)N1 (stereo not drawn) [Compound A-36, 5-(2,6-dioxopiperidin-3-yl)-2-(piperazin-1-yl)phenyl sulfurofluoridate]	*** (<= 1 μM is ***)	*** (<= 1 μM is ***)	*** (<= 1 μM is ***)	< 1000 nM	< 1000 nM	< 1000 nM	< 50%	< 50%	< 50%
O=C1CCC(Oc2ccc(C3CCNCC3)c(S(=O)(=O)F)c2)C(=O)N1 (stereo not drawn) [Compound A-38, 5-((2,6-dioxopiperidin-3-yl)oxy)-2-(piperidin-4-yl)benzenesulfonyl fluoride]	*** (<= 1 μM is ***)	*** (<= 1 μM is ***)	*** (<= 1 μM is ***)	< 1000 nM	< 1000 nM	< 1000 nM	< 50%	< 50%	< 50%
Cn1nc(N2CCC(=O)NC2=O)c2cccc(OS(=O)(=O)F)c21 [Compound A-30, 3-(2,4-dioxotetrahydropyrimidin-1(2H)-yl)-1-methyl-1H-indazol-7-yl sulfurofluoridate]	** (<10 μM and >1 μM is **)	*** (<= 1 μM is ***)	** (<10 μM and >1 μM is **)	1000 to 10000 nM	< 1000 nM	1000 to 10000 nM	< 50%	< 50%	< 50%
O=C1CCN(c2ccc(N3CCNCC3)c(OS(=O)(=O)F)c2)C(=O)N1 [drawing 1166]			** (<10 μM and >1 μM is **)			1000 to 10000 nM			< 50%
O=C1CCC(c2ccc(S(=O)(=O)F)cc2)C(=O)N1 (stereo not drawn) [Compound A-12, 4-(2,6-dioxopiperidin-3-yl)benzenesulfonyl fluoride]	*** (<= 1 μM is ***)	*** (<= 1 μM is ***)	*** (<= 1 μM is ***)	< 1000 nM	< 1000 nM	1000 to 10000 nM	< 50%	< 50%	< 50%
O=C1CCC(c2cccc(OS(=O)(=O)F)c2)C(=O)N1 (stereo not drawn) [Compound A-23, 3-(2,6-dioxopiperidin-3-yl)phenyl sulfurofluoridate]		** (<10 μM and >1 μM is **)	** (<10 μM and >1 μM is **)		1000 to 10000 nM	1000 to 10000 nM		< 50%	< 50%
O=C1NC(=O)C2(Nc3ccc(S(=O)(=O)F)cc3)CC1C2 [Compound A-33, 4-((2,4-dioxo-3-azabicyclo[3.1.1]heptan-1-yl)amino)benzenesulfonyl fluoride]	** (<10 μM and >1 μM is **)	** (<10 μM and >1 μM is **)	** (<10 μM and >1 μM is **)	1000 to 10000 nM	1000 to 10000 nM	1000 to 10000 nM	< 50%	< 50%	< 50%
Cc1ccc(OC2CCC(=O)NC2=O)cc1OS(=O)(=O)F (stereo not drawn) [Compound A-19, 5-((2,6-dioxopiperidin-3-yl)oxy)-2-methylphenyl sulfurofluoridate]	** (<10 μM and >1 μM is **)	** (<10 μM and >1 μM is **)	** (<10 μM and >1 μM is **)	1000 to 10000 nM	1000 to 10000 nM	1000 to 10000 nM	< 50%	< 50%	< 50%
Cn1nc(N2CCC(=O)NC2=O)c2cccc(S(=O)(=O)F)c21 [Compound A-10, 3-(2,4-dioxotetrahydropyrimidin-1(2H)-yl)-1-methyl-1H-indazole-7-sulfonyl fluoride]	*** (<= 1 μM is ***)	*** (<= 1 μM is ***)	*** (<= 1 μM is ***)	< 1000 nM	< 1000 nM	< 1000 nM	< 50%	< 50%	< 50%
O=C1CCC(Nc2ccc(C3CCNCC3)c(OS(=O)(=O)F)c2)C(=O)N1 (stereo not drawn) [Compound A-31, 5-((2,6-dioxopiperidin-3-yl)amino)-2-(piperidin-4-yl)phenyl sulfurofluoridate]	*** (<= 1 μM is ***)	*** (<= 1 μM is ***)	*** (<= 1 μM is ***)	< 1000 nM	< 1000 nM	< 1000 nM	< 50%	< 50%	< 50%
O=C1CCC(c2ccc(OS(=O)(=O)F)cc2)C(=O)N1 (stereo not drawn) [Compound A-25, 4-(2,6-dioxopiperidin-3-yl)phenyl sulfurofluoridate]		*** (<= 1 μM is ***)	*** (<= 1 μM is ***)		< 1000 nM	< 1000 nM		< 50%	< 50%
COc1ccc(OC2CCC(=O)NC2=O)cc1S(=O)(=O)F (stereo not drawn) [Compound A-16, 5-[(2,6-dioxo-3-piperidyl)oxy]-2-methoxy-benzenesulfonyl fluoride]	*** (<= 1 μM is ***)	*** (<= 1 μM is ***)	*** (<= 1 μM is ***)	< 1000 nM	< 1000 nM	< 1000 nM	< 50%	< 50%	< 50%
O=C1NC(=O)C2(c3ccc(S(=O)(=O)F)cc3)CC1C2 [Compound A-34, 4-(2,4-dioxo-3-azabicyclo[3.1.1]heptan-1-yl)benzenesulfonyl fluoride]	** (<10 μM and >1 μM is **)	** (<10 μM and >1 μM is **)	* (>=10 μM is *)	1000 to 10000 nM	1000 to 10000 nM	> 10000 nM	< 50%	< 50%	> 80%
O=C1CCN(c2ccc(S(=O)(=O)F)cc2)C(=O)N1 [Compound A-14, 4-(2,4-dioxotetrahydropyrimidin-1(2H)-yl)benzenesulfonyl fluoride]	** (<10 μM and >1 μM is **)	** (<10 μM and >1 μM is **)	** (<10 μM and >1 μM is **)	1000 to 10000 nM	1000 to 10000 nM	> 10000 nM	< 50%	< 50%	50 to 80%
